Laboratory results reported in patent publication US20060247227A1, “Substituted piperidines as histamine h3 receptor ligands” (priority 2003, published 2006).
Counter-ions that a name gives are not always drawn.

Target: T1, histamine H3 receptor (Homo sapiens, UniProt Q9Y5N1)
T1 construct: expressed in transfected cells; host or cells: CHO K1 cells carrying pSwitch, transfected with pGeneH3 and induced with mifepristone; clone 3H3; membranes
Test: Histamine H3 functional antagonist assay ([35S]GTPγS, SPA, membranes of CHO K1 cells expressing the receptor)
Type: biochemical
Details: histamine-stimulated GTPγS binding, membranes with human H3
From the text: A membrane preparation containing histamine H3 receptors may be prepared in accordance with the following procedures:
(i) Generation of Histamine H3 Cell Line
DNA encoding the human histamine H3 gene (Huvar, A. et al. (1999) Mol. Pharmacol. 55(6), 1101-1107) was cloned into a holding vector, pCDNA3.1 TOPO (InVitrogen) and its cDNA was isolated from this vector by restriction digestion of plasmid DNA with the enzymes BamH1 and Not-1 and ligated into the inducible expression vector pGene (InVitrogen) digested with the same enzymes. The GeneSwitch™ system (a system where in transgene expression is switched off in the absence of an inducer and switched on in the presence of an inducer) was performed as described in U.S. Pat. Nos. 5,364,791; 5,874,534; and 5,935,934. Ligated DNA was transformed into competent DH5α E. coli host bacterial cells and plated onto Luria Broth (LB) agar containing Zeocin™ (an antibiotic which allows the selection of cells expressing the sh ble gene which is present on pGene and pSwitch) at 50 μg ml^−1. Colonies containing the re-ligated plasmid were identified by restriction analysis. DNA for transfection into mammalian cells was prepared from 250 ml cultures of the host bacterium containing the pGeneH3 plasmid and isolated using a DNA preparation kit (Qiagen Midi-Prep) as per manufacturers guidelines (Qiagen).
CHO K1 cells previously transfected with the pSwitch regulatory plasmid (InVitrogen) were seeded at 2×10e6cells per T75 flask in Complete Medium, containing Hams F12 (GIBCOBRL, Life Technologies) medium supplemented with 10% v/v dialysed foetal bovine serum, L-glutamine, and hygromycin ([…]), 24 hours prior to use. Plasmid DNA was transfected into the cells using Lipofectamine plus according to the manufacturers guidelines (InVitrogen). 48 hours post transfection cells were placed into complete medium supplemented with […] Zeocin™.
10-14 days post selection 10 nM Mifepristone (InVitrogen), was added to the culture medium to induce the expression of the receptor. 18 hours post induction cells were detached from the flask using ethylenediamine tetra-acetic acid (EDTA; 1:5000; InVitrogen), following several washes with phosphate buffered saline pH 7.4and resuspended in Sorting Medium containing Minimum Essential Medium (MEM), without phenol red, and supplemented with Earles salts and 3% Foetal Clone II (Hyclone). Approximately 1×10e7 cells were examined for receptor expression by staining with a rabbit polyclonal antibody, 4a, raised against the N-terminal domain of the histamine H3 receptor, incubated on ice for 60 minutes, followed by two washes in sorting medium. Receptor bound antibody was detected by incubation of the cells for 60 minutes on ice with a goat anti rabbit antibody, conjugated with Alexa 488 fluorescence marker (Molecular Probes). Following two further washes with Sorting Medium, cells were filtered through a 50 μm Filcon™ (BD Biosciences) and then analysed on a FACS Vantage SE Flow Cytometer fitted with an Automatic Cell Deposition Unit. Control cells were non-induced cells treated in a similar manner. Positively stained cells were sorted as single cells into 96-well plates, containing Complete Medium containing 500 μg ml^−1 Zeocin™ and allowed to expand before reanalysis for receptor expression via antibody and ligand binding studies. One clone, 3H3, was selected for membrane preparation.
(ii) Membrane Preparation from Cultured Cells
All steps of the protocol are carried out at 4° C. and with pre-cooled reagents. The cell pellet is resuspended in 10 volumes of buffer A2 containing 50 mM N-2-hydroxyethylpiperazine-N′-2-ethanesulfonic acid (HEPES) (pH 7.40) supplemented with […] leupeptin (acetyl-leucyl-leucyl-arginal; Sigma L2884), 25 μg/ml bacitracin (Sigma B0125), 1 mM ethylenediamine tetra-acetic acid (EDTA), 1 mM phenylmethylsulfonyl fluoride (PMSF) and 2×10e-6M pepstain A (Sigma). […]

T1 sequence (Q9Y5N1 whole entry): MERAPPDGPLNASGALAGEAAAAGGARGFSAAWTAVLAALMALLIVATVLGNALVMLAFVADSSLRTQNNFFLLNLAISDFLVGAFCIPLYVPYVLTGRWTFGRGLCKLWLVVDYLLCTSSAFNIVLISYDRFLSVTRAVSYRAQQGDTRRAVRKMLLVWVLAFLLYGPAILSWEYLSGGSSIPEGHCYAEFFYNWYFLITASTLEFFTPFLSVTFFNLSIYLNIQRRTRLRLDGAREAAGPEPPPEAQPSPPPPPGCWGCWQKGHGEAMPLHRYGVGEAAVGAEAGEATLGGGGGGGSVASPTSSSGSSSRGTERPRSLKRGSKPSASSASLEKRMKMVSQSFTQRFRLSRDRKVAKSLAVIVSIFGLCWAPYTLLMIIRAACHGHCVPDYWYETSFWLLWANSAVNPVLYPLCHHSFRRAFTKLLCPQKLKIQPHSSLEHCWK

| Ki | Compound |
| --- | --- |
| ≤ 1 nM | CC(=O)Nc1ccc(N2CCC(OC3CCN(C4CCC4)CC3)CC2)cc1F [Example E98, N-(4-{4-[(1-Cyclobutyl-4-piperidinyl)oxy]-1-piperidinyl}-2-fluorophenyl)acetamide hydrochloride] |
| < 10 nM | CNC(=O)c1ccc(N2CCC(OC3CCN(C(C)C)CC3)CC2)nc1 [Example E50] |
| ≤ 1 nM | CC(C)N1CCC(OC2CCN(c3ccc(C(F)(F)F)nc3)CC2)CC1 [Example E81, 5-{4-[(1-Methylethyl-4-piperidinyl)oxy]-1-piperidinyl}-2-(trifluoromethyl)pyridine hydrochloride] |
| ≤ 1 nM | CC(C)N1CCC(OC2CCN(c3ccc(C(=O)N4CCCC4)cc3)CC2)CC1 [Example E10] |
| ≤ 1 nM | CC(C)N1CCC(OC2CCN(c3ccc(C(=O)NCCCCl)nc3)CC2)CC1 [Example E108, N (3-Chloropropyl)-5-(4-{[1-(1-methylethyl)-4-piperidinyl]oxy}-1-piperidinyl)-2-pyridinecarboxamide hydrochloride] |
| ≤ 1 nM | CC(C)N1CCC(OC2CCN(c3ccc(-c4nnc(-c5ccccc5)o4)cc3)CC2)CC1 [Example E26] |
| ≤ 1 nM | c1coc(-c2ccc(N3CCC(OC4CCN(C5CCC5)CC4)CC3)cc2)n1 [Example E21] |
| ≤ 1 nM | O=C(c1ccc(N2CCC(OC3CCN(C4CCC4)CC3)CC2)cc1)N1CCOCC1 [Example E5, 4-[(4-{4-[(1-Cyclobutyl-4-piperidinyl)oxy]-1-piperidinyl}phenyl)carbonyl]morpholine hydrochloride] |
| < 10 nM | Cc1ncc(-c2ccc(N3CCC(OC4CCN(C(C)C)CC4)CC3)cc2)o1 [Example E20] |
| ≤ 1 nM | CC(=O)c1ccc(N2CCC(OC3CCN(C4CCC4)CC3)CC2)cn1 [Example E111, 1-(5-{4-[(1-Cyclobutyl-4-piperidinyl)oxy]-1-piperidinyl}-2-pyridinyl)ethanone] |
| ≤ 1 nM | N#Cc1ccc(N2CCC(OC3CCN(C4CCC4)CC3)CC2)nc1 [Example E2, 6-{4-[(1-Cyclobutyl-4-piperidinyl)oxy]-1-piperidinyl}-3-pyridinecarbonitrile hydrochloride] |
| ≤ 1 nM | Cc1noc(-c2ccc(N3CCC(OC4CCN(C(C)C)CC4)CC3)cc2F)n1 [Example E113, 1-[3-Fluoro-4-(3-methyl-1,2,4-oxadiazol-5-yl)phenyl]-4-{[1-(1-methylethyl)-4-piperidinyl]oxy}piperidine hydrochloride] |
| ≤ 1 nM | CC(C)N1CCC(OC2CCN(c3ccc(C#N)cc3)CC2)CC1 [Example E4, 4-(4-{[1-(1-Methylethyl)-4-piperidinyl]oxy}-1-piperidinyl)benzonitrile hydrochloride] |
| ≤ 1 nM | FC(F)(F)c1ccc(N2CCC(OC3CCN(C4CCC4)CC3)CC2)nc1 [Example E86, 2-{4-[(1-Cyclobutyl-4-piperidinyl)oxy]-1-piperidinyl}-5-(trifluoromethyl)pyridine hydrochloride] |
| ≤ 1 nM | CCCNC(=O)c1cnc(N2CCC(OC3CCN(C(C)C)CC3)CC2)cn1 [Example E77] |
| ≤ 1 nM | Cc1noc(-c2ccc(N3CCC(OC4CCN(C5CCC5)CC4)CC3)cc2)n1 [Example E28] |
| ≤ 1 nM | CC(=O)c1ccc(N2CCC(OC3CCN(C4CCC4)CC3)CC2)c(F)c1 [Example E109, 1-(4-{4-[(1-Cyclobutyl-4-piperidinyl)oxy]-1-piperidinyl}-3-fluorophenyl)ethanone] |
| ≤ 1 nM | CC(=O)c1ccc(N2CCC(OC3CCN(C(C)C)CC3)CC2)cc1 [Example E97, 1-[4-(4-{[1-(Methylethyl)-4-piperidinyl]oxy}-1-piperidinyl)phenyl]ethanone] |
| < 10 nM | CC(C)N1CCC(OC2CCN(c3ccc(C(F)(F)F)nn3)CC2)CC1 [Example E83, 3-(4-{[1-(1-Methylethyl)-4-piperidinyl]oxy}-1-piperidinyl)-6-(trifluoromethyl)pyridazine] |
| ≤ 1 nM | CN(C)C(=O)c1ccc(N2CCC(OC3CCN(C4CCC4)CC3)CC2)cn1 [Example E31, 5-{4-[(1-Cyclobutyl-4-piperidinyl)oxy]-1-piperidinyl}-N,N-dimethyl-2-pyridinecarboxamide hydrochloride] |
| ≤ 1 nM | FC(F)(F)c1cnc(N2CCC(OC3CCN(C4CCC4)CC3)CC2)cn1 [Example E84, 2-{4-[(1-Cyclobutyl-4-piperidinyl)oxy]-1-piperidinyl}-5-(trifluoromethyl)pyrazine hydrochloride] |
| < 10 nM | Cc1nc(-c2ccc(N3CCC(OC4CCN(C(C)C)CC4)CC3)cc2)co1 [Example E18] |

| Ki | Compound |
| --- | --- |
| ≤ 1 nM | CC(C)N1CCC(OC2CCN(c3ccc(C(=O)N4CCCCC4)cc3)CC2)CC1 [Example E8] |
| < 10 nM | CC(C)N1CCC(OC2CCN(c3cccc(C(=O)N4CCCC4)n3)CC2)CC1 [Example E60] |
| ≤ 1 nM | CC(C)N1CCC(OC2CCN(c3cnc(C(F)(F)F)nc3)CC2)CC1 [Example E89, 5-(4-{[1-(1-Methylethyl)-4-piperidinyl]oxy}-1 piperidinyl)-2-(trifluoromethyl) pyrimidine] |
| ≤ 1 nM | N#Cc1ccc(N2CCC(OC3CCN(C4CCC4)CC3)CC2)cc1 [Example E3, 4-{4-[(1-Cyclobutyl-4-piperidinyl)oxy]-1-piperidinyl}benzonitrile hydrochloride] |
| < 10 nM | CNC(=O)c1ccc(N2CCC(OC3CCN(C(C)C)CC3)CC2)cc1 [Example E14] |
| ≤ 1 nM | CC(C)N1CCC(OC2CCN(c3ccc(C(=O)N4CCOCC4)cc3)CC2)CC1 [Example E7] |
| ≤ 1 nM | FC(F)(F)c1ccc(N2CCC(OC3CCN(C4CCC4)CC3)CC2)cn1 [Example E49, 5-{4-[(1-Cyclobutyl-4-piperidinyl)oxy]-1-piperidinyl}-2-(trifluoromethyl)pyridine hydrochloride] |
| ≤ 1 nM | O=C(NC1CCC1)c1cnc(N2CCC(OC3CCN(C4CCC4)CC3)CC2)cn1 [Example E74] |
| ≤ 1 nM | CNC(=O)c1cccc(N2CCC(OC3CCN(C4CCC4)CC3)CC2)n1 [Example E62] |
| ≤ 1 nM | O=C(c1ccc(N2CCC(OC3CCN(C4CCC4)CC3)CC2)cn1)N1CCOCC1 [Example E37] |
| ≤ 1 nM | CC(C)NC(=O)c1cnc(N2CCC(OC3CCN(C(C)C)CC3)CC2)cn1 [Example E78] |
| ≤ 1 nM | CC(C)N1CCC(OC2CCN(c3ccc(C#N)nc3)CC2)CC1 [Example E80, 5-(4-{[1-(1-Methylethyl)-4-piperidinyl]oxy)-1-piperidinyl)-2-pyridinecarbonitrile hydrochloride] |
| ≤ 1 nM | CCCNC(=O)c1cnc(N2CCC(OC3CCN(C4CCC4)CC3)CC2)cn1 [Example E72] |
| ≤ 1 nM | O=C(NCCCCl)c1ccc(N2CCC(OC3CCN(C4CCC4)CC3)CC2)cc1 [Example E15, N-(3-Chloropropyl)-4-{4-[(1-cyclobutyl-4-piperidinyl)oxy]-1-piperidinyl}benzamide hydrochloride] |
| ≤ 1 nM | CNC(=O)c1ccc(N2CCC(OC3CCN(C4CCC4)CC3)CC2)nc1 [Example E54] |
| ≤ 1 nM | Cc1nc(-c2ccc(N3CCC(OC4CCN(C5CCC5)CC4)CC3)cc2)co1 [Example E16, 1-Cyclobutyl-4-({1-[4-(2-methyl-1,3-oxazol-4-yl)phenyl]-4-piperidinyl}oxy)piperidine hydrochloride] |
| ≤ 1 nM | CN(C)C(=O)c1ccc(N2CCC(OC3CCN(C4CCC4)CC3)CC2)cc1 [Example E13] |
| ≤ 1 nM | O=C(c1ccc(N2CCC(OC3CCN(C4CCC4)CC3)CC2)nc1)N1CCOCC1 [Example E57] |
| ≤ 1 nM | CC(C)N1CCC(OC2CCN(c3ccc(C(=O)N4CCOCC4)nc3)CC2)CC1 [Example E36] |
| ≤ 1 nM | CCNC(=O)c1cnc(N2CCC(OC3CCN(C(C)C)CC3)CC2)cn1 [Example E76] |
| ≤ 1 nM | CC(C)NC(=O)c1cnc(N2CCC(OC3CCN(C4CCC4)CC3)CC2)cn1 [Example E73] |
